Assay [1] has as its target T1, FAK (Homo sapiens (Human), UniProt Q05397). Kind of assay: FAK Degradation Assay (Western blot, FAK/GAPDH). Type of assay: cell-based. As to conditions: MDA-MB-231 cells, 24 h treatment, Western blot normalized to DMSO; for DC50: read-out: DC50 (half-maximal degradation concentration), FAK Degradation; for Dmax: read-out: Dmax (maximal degradation), FAK Degradation. Here is the method:
H2122 (4×10^5), MIA PaCa-2 (6×10s), or MDA-MB-231 cells (6×10^5) per well were seeded into a 6-well plate containing 2 mL of complete culture medium (RPMI-1640 for H2122 and MDA-MB-231, and DMEM/F12 for MIA PaCa-2, supplemented with 10% FBS and 1% penicillin/streptomycin). The cells were cultured overnight at 37° C. in the presence of 5% C02 before treated with a compound in a series of concentrations for 24 h. The cells were then washed with ice-cold Dulbecco's phosphate-buffered saline (DPBS). A radioimmuno-precipitation assay (RIPA) buffer was added to lyse the cells on ice for 20 min. The cells were then scrapped using cell scraper and collected in a 1.5 mL tube, which was centrifuged at 14,000 g and 4° C. for 15 min. The supernatant was collected and the total protein concentration of each sample was determined using a PIERCE™ BCA protein assay kit. The supernatant was diluted to the same protein concentration with the RIPA buffer after the BCA assay. Samples of the same protein amount were mixed with 4× a lithium dodecyl sulfate (LDS) sample buffer and boiled at 95° C. for 5 min. The denatured samples were used for electrophoresis.
For Western blot, the same volume containing ˜50 μg protein for each sample was loaded onto 4-12% Bis-Tris protein gel. The gel was run at 80 V for 0.5 h and at 120 V for 1 h. When the electrophoresis was completed, an IBLOT™ 2 gel transfer device was used to transfer FAK and GAPDH proteins at 20 V for 7 min. All the membranes were blocked in 5% nonfat dry milk in a TBST buffer at RT for 1 h and then incubated with primary antibodies (anti-FAK and anti-GAPDH) in a TBST buffer containing 5% BSA at 4° C. overnight. The membranes were washed with the TBST buffer and then incubated with secondary antibodies (goat anti-rabbit IgG H&L for FAK and goat anti-mouse IgG H&L for GAPDH) at room temperature for 1 h. Blots were visualized using an IMAGEQUANT™ LAS-4000. The chemiluminescent signals from ECL™ Western blotting reagents were captured. The band integrated intensity from each 16-bit blot image was used for quantitation. The FAK/GAPDH signal ratios of each sample were normalized using DMSO as a control and the normalized data for each compound were used to obtain its half-maximal degradation concentration (DC50) and maximal degradation (Dmax).
A general note: Immunoblotting shows a protein as a band on a membrane.
Target sequence in this assay (Q05397 whole entry): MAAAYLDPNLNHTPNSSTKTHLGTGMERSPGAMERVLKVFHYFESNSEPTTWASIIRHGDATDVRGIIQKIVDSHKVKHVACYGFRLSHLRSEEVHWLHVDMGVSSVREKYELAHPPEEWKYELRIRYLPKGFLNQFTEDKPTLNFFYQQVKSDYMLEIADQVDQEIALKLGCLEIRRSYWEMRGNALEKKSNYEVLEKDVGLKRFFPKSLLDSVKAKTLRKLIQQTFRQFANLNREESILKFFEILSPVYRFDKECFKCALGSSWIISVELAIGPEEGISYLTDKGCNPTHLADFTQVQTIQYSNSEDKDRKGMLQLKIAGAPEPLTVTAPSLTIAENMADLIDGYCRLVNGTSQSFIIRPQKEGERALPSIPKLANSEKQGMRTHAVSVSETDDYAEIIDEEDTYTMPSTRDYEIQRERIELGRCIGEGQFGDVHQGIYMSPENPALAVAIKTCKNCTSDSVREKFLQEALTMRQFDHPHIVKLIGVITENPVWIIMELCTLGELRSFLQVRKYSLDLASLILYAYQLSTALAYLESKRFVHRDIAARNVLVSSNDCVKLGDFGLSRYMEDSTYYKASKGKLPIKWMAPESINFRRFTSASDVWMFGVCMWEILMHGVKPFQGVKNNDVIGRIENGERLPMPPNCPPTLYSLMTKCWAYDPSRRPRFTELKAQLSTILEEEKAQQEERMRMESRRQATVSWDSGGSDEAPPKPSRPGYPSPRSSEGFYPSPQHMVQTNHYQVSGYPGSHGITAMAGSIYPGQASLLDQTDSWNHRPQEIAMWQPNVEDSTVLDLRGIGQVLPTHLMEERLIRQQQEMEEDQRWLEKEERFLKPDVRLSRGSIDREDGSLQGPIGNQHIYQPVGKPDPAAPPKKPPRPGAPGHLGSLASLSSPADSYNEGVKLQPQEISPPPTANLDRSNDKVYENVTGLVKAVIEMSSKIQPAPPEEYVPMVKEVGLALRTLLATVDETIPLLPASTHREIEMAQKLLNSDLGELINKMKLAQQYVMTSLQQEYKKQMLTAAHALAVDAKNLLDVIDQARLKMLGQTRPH

In assay [2] the target is T1, FAK. Briefly: FAK Kinase Assay (TR-FRET, LanthaScreen). Type of assay: biochemical. As to conditions: FAK 1 nM, ATP 6.8 μM, fluorescein-polyGT 0.2 μM, 30 min; read-out: IC50, FAK Inhibition. How it is done: The inhibitory activity of a compound against FAK was determined in a buffer containing 5 mM HEPES, pH 7.5, 0.01% Triton, 0.5 mM EGTA, and 0.01% BRIJ™-35 in a 384-well assay plate. The assay was carried out in the presence of the FAK at 1 nM and ATP at 6.8 μM using fluorescein-polyGT (0.2 μM) as an FAK substrate. Each assay mixture was incubated at room temperature for 30 min. A LANTHASCREEN® Tb-PY20 antibody was added to each well to stop the enzymatic reaction. The plate was incubated at room temperature for 60 min before reading on an ENVISION using TR-FRET module (excitation at 340 nm and emission at 520 nm and 495 nm).
Target sequence in this assay (Q05397 whole entry, species assumed): as the sequence (Q05397 whole entry) above

Data on 13 molecules can be found in US20250214967A1, “FAK DEGRADERS, PHARMACEUTICAL COMPOSITIONS, AND THERAPEUTIC APPLICATIONS” (Berrybio (Shanghai) Limited, priority 2022, published 2025).

pIC50: −log10 of the molar value.

As for `Cc1cc(OCCOCCOCCOc2ccc3c(c2)C(=O)N(C2CCC(=O)NC2=O)C3=O)ccc1Nc1ncc(C(F)(F)F)c(NCc2cccc(P(C)(C)=O)c2)n1` (stereo not shown) [Compound A3, 5-(2-(2-(2-(4-((4-((3-(Dimethylphosphoryl)benzyl)amino)-5-(trifluoromethyl)-pyrimidin-2-yl)amino)-3-methylphenoxy)ethoxy)ethoxy)ethoxy)-2-(2,6-dioxopiperidin-3-yl)-isoindoline-1,3-dione], on FAK [1], the DC50 came out at 1980 nM and the Dmax (in general, the greatest extent of degradation seen) amounted to 100%. In addition, the pIC50 (usually the negative decadic logarithm of the IC50, by convention in mol/L) at FAK [2] was 6.65.

On to `CN(c1nccnc1CNc1nc(Nc2ccc(CNC3CCN(CC4CCN(c5ccc6c(c5)C(=O)N(C5CCC(=O)NC5=O)C6=O)CC4)CC3)cc2)ncc1C(F)(F)F)S(C)(=O)=O` (stereo not shown) [Compound A6, N-(3-(((2-((4-(((1-((1-(2-(2,6-Dioxopiperidin-3-yl)-1,3-dioxoisoindolin-5-yl)-piperidin-4-yl)methyl)piperidin-4-yl)amino)methyl)phenyl)amino)-5-(trifluoromethyl)pyrimidin-4-yl)amino)methyl)pyrazin-2-yl)-N-methylmethanesulfonamide], for which, on FAK [1], the DC50 came out at 2.5 nM and the greatest degradation seen (Dmax) was determined as 99%. On FAK [2], the pIC50 is 9.41.

Turning to `Cc1cc(OCCOCCOCCOc2ccc3c(c2)C(=O)N(C2CCC(=O)NC2=O)C3=O)ccc1Nc1ncc(C(F)(F)F)c(NCc2cccc(N(C)S(C)(=O)=O)c2)n1` (stereo not shown) [Compound A1, N-(3-(((2-((4-(2-(2-(2-((2-(2,6-dioxopiperidin-3-yl)-1,3-dioxoisoindolin-5-yl)oxy)ethoxy)ethoxy)ethoxy)-2-methylphenyl)amino)-5-(trifluoromethyl)pyrimidin-4-yl)-amino)methyl)phenyl)-N-methylmethanesulfonamide], on FAK [1], the DC50 came to 7 nM and the Dmax came out at 89%. The pIC50 at FAK [2] is 8.35.

As to `CN(c1nccnc1CNc1nc(Nc2ccc(C(=O)NC3CCN(CC4CCN(c5ccc6c(c5)C(=O)N(C5CCC(=O)NC5=O)C6=O)CC4)CC3)cc2)ncc1C(F)(F)F)S(C)(=O)=O` (stereo not shown) [Compound A4, N-(1-((1-(2-(2,6-dioxopiperidin-3-yl)-1,3-dioxoisoindolin-5-yl)piperidin-4-yl)methyl)piperidin-4-yl)-4-((4-(((3-(N-methylmethylsulfonamido)pyrazin-2-yl)methyl)amino)-5-(trifluoromethyl)pyrimidin-2-yl)amino)benzamide], on FAK [1], the DC50 is 0.5 nM and the Dmax was found to be 92%. At FAK [2], the pIC50 is 9.40.

On to `CN(c1nccnc1CNc1nc(Nc2ccc(CNC3CCN(c4ccc5c(c4)C(=O)N(C4CCC(=O)NC4=O)C5=O)CC3)cc2)ncc1C(F)(F)F)S(C)(=O)=O` (stereo not shown) [Compound A7, N-(3-(((2-((4-(((1-(2-(2,6-Dioxopiperidin-3-yl)-1,3-dioxoisoindolin-5-yl)-piperidin-4-yl)amino)methyl)phenyl)amino)-5-(trifluoromethyl)pyrimidin-4-yl)amino)methyl)-pyrazin-2-yl)-N-methylmethanesulfonamide], for which, on FAK [1], the DC50 was found to be 0.6 nM and the Dmax was found to be 99%. The pIC50 on FAK [2] is 9.33.

As to `CN(c1nccnc1CNc1nc(Nc2cccc(C(=O)N3CCC(N4CCN(c5ccc6c(c5)C(=O)N(C5CCC(=O)NC5=O)C6=O)CC4)CC3)c2)ncc1C(F)(F)F)S(C)(=O)=O` (stereo not shown) [Compound A11, N-(3-(((2-((3-(4-(4-(2-(2,6-Dioxopiperidin-3-yl)-1,3-dioxoisoindolin-5-yl)-piperazin-1-yl)piperidine-1-carbonyl)phenyl)amino)-5-(trifluoromethyl)pyrimidin-4-yl)amino)-methyl)pyrazin-2-yl)-N-methylmethanesulfonamide], at FAK [1], the DC50 was found to be 0.83 nM and the Dmax came out at 94%.

Regarding `CN(c1nccnc1CNc1nc(Nc2ccc(CN[C@@H]3CCN(c4ccc5c(c4)C(=O)N(C4CCC(=O)NC4=O)C5=O)C[C@@H]3F)cc2)ncc1C(F)(F)F)S(C)(=O)=O` (stereo partly drawn) [Compound A36, N-(3-(((2-((4-((((3S,4R)-1-(2-(2,6-Dioxopiperidin-3-yl)-1,3-dioxoisoindolin-5-yl)-3-fluoropiperidin-4-yl)amino)methyl)phenyl)amino)-5-(trifluoromethyl)pyrimidin-4-yl)amino)-methyl)pyrazin-2-yl)-N-methylmethanesulfonamide], at FAK [1], the DC50 is 0.83 nM and the Dmax came out at 94%.

For the molecule `CNC(=O)c1ccccc1Nc1cc(Nc2cc(F)c(CNC3CCN(c4ccc5c(c4)C(=O)N(C4CCC(=O)NC4=O)C5=O)CC3)cc2OC)ncc1C(F)(F)F` (stereo not shown) [Compound A54, 2-((2-((4-(((1-(2-(2,6-Dioxopiperidin-3-yl)-1,3-dioxoisoindolin-5-yl)piperidin-4-yl)amino)methyl)-5-fluoro-2-methoxyphenyl)amino)-5-(trifluoromethyl)pyridin-4-yl)amino)-N-methylbenzamide], at FAK [1], the DC50 came out at 0.98 nM and the maximal degradation (Dmax) was 96%.

As to `CS(=O)(=O)c1ccccc1Nc1cc(Nc2ccc(CNC3CCN(c4ccc5c(c4)C(=O)N(C4CCC(=O)NC4=O)C5=O)CC3)cc2)ncc1C(F)(F)F` (stereo not shown) [Compound A34, 2-(2,6-Dioxopiperidin-3-yl)-5-(4-((4-((4-((2-(methylsulfonyl)phenyl)amino)-5-(trifluoromethyl)pyridin-2-yl)amino)benzyl)amino)piperidin-1-yl)isoindoline-1,3-dione], on FAK [1], the DC50 stood at 25 nM and the maximal degradation (Dmax) was 83%.

Consider `CNC(=O)c1ccccc1Nc1cc(Nc2ccc(C(=O)NC3CCN(c4ccc5c(c4)C(=O)N(C4CCC(=O)NC4=O)C5=O)CC3)cc2)ncc1C(F)(F)F` (stereo not shown) [Compound A21, 2-((2-((4-((1-(2-(2,6-Dioxopiperidin-3-yl)-1,3-dioxoisoindolin-5-yl)piperidin-4-yl)carbamoyl)phenyl)amino)-5-(trifluoromethyl)pyridin-4-yl)amino)-N-methylbenzamide], for which, at FAK [1], the DC50 was found to be 1.3 nM and the Dmax was found to be 93%.

For `CNC(=O)c1ccccc1Nc1cc(Nc2ccc(CNC3CCN(c4ccc5c(c4)C(=O)N(C4CCC(=O)NC4=O)C5=O)CC3)cc2)ncc1C(F)(F)F` (stereo not shown) [Compound A22, 2-((2-((4-(((1-(2-(2,6-Dioxopiperidin-3-yl)-1,3-dioxoisoindolin-5-yl)piperidin-4-yl)amino)methyl)phenyl)amino)-5-(trifluoromethyl}pyridin-4-yl)amino)-N-methylbenzamide], at FAK [1], the DC50 was 3.5 nM and the Dmax came out at 93%.

Take `CN(c1cccc(CNc2cc(Nc3ccc(CNC4CCN(c5ccc6c(c5)C(=O)N(C5CCC(=O)NC5=O)C6=O)CC4)c(F)c3)ncc2C(F)(F)F)c1)S(C)(=O)=O` (stereo not shown) [Compound A31, N-(3-(((2-((4-(((1-(2-(2,6-Dioxopiperidin-3-yl)-1,3-dioxoisoindolin-5-yl)-piperidin-4-yl)amino)methyl)-3-fluorophenyl)amino)-5-(trifluoromethyl)pyridin-4-yl)amino)-methyl)phenyl)-N-methylmethanesulfonamide]: at FAK [1], the DC50 amounted to 6.1 nM and the greatest degradation seen (Dmax) worked out at 98%.

Consider `CNC(=O)c1ccccc1Nc1cc(Nc2ccc(CNC3CCN(c4ccc5c(c4)C(=O)N(C4CCC(=O)NC4=O)C5=O)CC3)c(F)c2)ncc1C(F)(F)F` (stereo not shown) [Compound A29, 2-((2-((4-(((1-(2-(2,6-dioxopiperidin-3-yl)-1,3-dioxoisoindolin-5-yl)piperidin-4-yl)amino)-methyl)-3-fluorophenyl)amino)-5-(trifluoromethyl)pyridin-4-yl)amino)-N-methyl-benzamide], for which, at FAK [1], the DC50 is 8.55 nM and the Dmax stood at 97%.
